Consider 2 molecules from ChEMBL document CHEMBL5247608, “HIV-1 gp120-CXCR4 recognition probed with synthetic nanomolar affinity D-peptides containing fragments of gp120 V3 loop” (Eur J Med Chem, 2022).

Each structure is given as a SMILES string. Activity calls are given as the source filed them. The rule behind the calls is not given here.

Data set [1] deals with C-X-C chemokine receptor type 4 (Homo sapiens), P61073 [E288D]. Description: Displacement of 12G5 mAb from CXCR4 E288D mutant (unknown origin) expressed in CHO cells at 200 nM incubated for 40 mins by spectrophotometric method. Type of data set: cell-based.
Data set [2] deals with T1, C-X-C chemokine receptor type 4 (Homo sapiens, UniProt P61073). The data set is described as follows: Displacement of 12G5 mAb from CXCR4 (unknown origin) expressed in CHO cells incubated for 40 mins by spectrophotometric method. The class given is cell-based.
Data set [3] concerns the target T1, C-X-C chemokine receptor type 4. Description: Antagonist activity against EGFP-tagged CXCR4 (unknown origin) transfected in CHO cells assessed as inhibition of SDF-1alpha-induced receptor internalization at 0.01 to 10 uM preincubated for 10 mins followed by SDF-1alpha addition by confocal microscopy. Type of data set: cell-based. The note with it: filed as antagonist, dose 0.01-10 µM.

The target is the same in data set [4]. The data set is described as follows: Antagonist activity against EGFP-tagged CXCR4 (unknown origin) transfected in CHO cells assessed as inhibition of SDF-1alpha-induced receptor internalization at 10 uM preincubated for 10 mins followed by SDF-1alpha addition by confocal microscopy. Type of data set: cell-based. The following applies: filed as antagonist.

Data set [5] has the same target. The data set is described as follows: Antagonist activity against CXCR4 in human SUP-T1 cells assessed as inhibition of SDF-1alpha-induced intracellular calcium mobilization by Fluo-4AM dye based fluorescence analysis. The class given is cell-based. The following applies: filed as antagonist, dose 0.01-10 µM. For orientation: Calcium flux is commonly read through the fluorescence of an indicator in the cells.

Data set [6] has as its system C-X-C chemokine receptor type 4 (Homo sapiens), P61073 [D171A]. Description: Displacement of 12G5 mAb from CXCR4 D171A mutant (unknown origin) expressed in CHO cells at 200 nM incubated for 40 mins by spectrophotometric method. Type of data set: cell-based. The note with it: filed as antagonist.
The test system of data set [7] is C-X-C chemokine receptor type 4 (Homo sapiens), P61073 [D262N]. The data set is described as follows: Displacement of 12G5 mAb from CXCR4 D262N mutant (unknown origin) expressed in CHO cells at 200 nM incubated for 40 mins by spectrophotometric method. Type of data set: cell-based.
Data set [8] deals with C-X-C chemokine receptor type 4 (Homo sapiens), P61073 [Y45A]. Description: Displacement of 12G5 mAb from CXCR4 Y45A mutant (unknown origin) expressed in CHO cells at 200 nM incubated for 40 mins by spectrophotometric method. Type of data set: cell-based. The note with it: filed as antagonist.
The target of data set [9] is T1, C-X-C chemokine receptor type 4. The data set is described as follows: Antagonist activity against CXCR4 in human SUP-T1 cells assessed as inhibition of SDF-1alpha-induced cell migration at 10 uM preincubated with cells for 30 mins followed by incubation with SDF-1alpha for 3 hrs by CellTiter-96 reagent based transwell assay. The note with it: filed as antagonist, time 210.0 min.

For data set [10] the target is unchanged. Description: Antagonist activity against CXCR4 in human SUP-T1 cells assessed as inhibition of SDF-1alpha-induced cell migration preincubated with cells for 30 mins followed by incubation with SDF-1alpha for 3 hrs by CellTiter-96 reagent based transwell assay. The note with it: filed as antagonist, time 210.0 min.
For data set [11], the system named is C-X-C chemokine receptor type 4 (Homo sapiens), P61073 [F87A]. Description: Displacement of 12G5 mAb from CXCR4 F87A mutant (unknown origin) expressed in CHO cells at 200 nM incubated for 40 mins by spectrophotometric method. Type of data set: cell-based.
Data set [12] relates to Human immunodeficiency virus 1. Description: Antiviral activity against HIV-1 R5 Bal-6 infected in human PBMC assessed as inhibition of viral replication by measuring reduction in p24 antigen level at 10 uM measured after 5 days by ELISA. The class given is functional, organism-based. The note with it: time 5.0 day.
For data set [13], the system named is C-X-C chemokine receptor type 4 (Homo sapiens), P61073 [W94A]. The data set is described as follows: Displacement of 12G5 mAb from CXCR4 W94A mutant (unknown origin) expressed in CHO cells at 200 nM incubated for 40 mins by spectrophotometric method. The class given is cell-based.
In data set [14] the test system is C-X-C chemokine receptor type 4 (Homo sapiens), P61073 [W161A]. Description: Displacement of 12G5 mAb from CXCR4 W161A mutant (unknown origin) expressed in CHO cells at 200 nM incubated for 40 mins by spectrophotometric method. The class given is cell-based.
The test system of data set [15] is Human immunodeficiency virus 1. Description: Antiviral activity against HIV-1 X4 NL4-3 infected in human PBMC assessed as inhibition of viral replication by measuring reduction in p24 antigen level at 10 uM measured after 5 days by ELISA. The class given is functional, organism-based. The following applies: time 5.0 day. (In general: In an ELISA, binding on a coated surface is turned into a signal by an enzyme label.)

In data set [16] the test system is C-X-C chemokine receptor type 4 (Homo sapiens), P61073 [W195A]. Description: Displacement of 12G5 mAb from CXCR4 W195A mutant (unknown origin) expressed in CHO cells at 200 nM incubated for 40 mins by spectrophotometric method. Type of data set: cell-based.
For data set [17], the system named is C-X-C chemokine receptor type 4 (Homo sapiens), P61073 [E288A]. The data set is described as follows: Displacement of 12G5 mAb from CXCR4 E288A mutant (unknown origin) expressed in CHO cells at 200 nM incubated for 40 mins by spectrophotometric method. The class given is cell-based.
Data set [18] deals with C-X-C chemokine receptor type 4 (Homo sapiens), P61073 [N119A]. The data set is described as follows: Displacement of 12G5 mAb from CXCR4 N119A mutant (unknown origin) expressed in CHO cells at 200 nM incubated for 40 mins by spectrophotometric method. Type of data set: cell-based.
Data set [19] concerns C-X-C chemokine receptor type 4 (Homo sapiens), P61073 [D193A]. The data set is described as follows: Displacement of 12G5 mAb from CXCR4 D193A mutant (unknown origin) expressed in CHO cells at 200 nM incubated for 40 mins by spectrophotometric method. The class given is cell-based.
Data set [20] has as its system C-X-C chemokine receptor type 4 (Homo sapiens), P61073 [T117A]. Description: Displacement of 12G5 mAb from CXCR4 T117A mutant (unknown origin) expressed in CHO cells at 200 nM incubated for 40 mins by spectrophotometric method. Type of data set: cell-based. The note with it: filed as antagonist.
The test system of data set [21] is C-X-C chemokine receptor type 4 (Homo sapiens), P61073 [H113A]. Description: Displacement of 12G5 mAb from CXCR4 H113A mutant (unknown origin) expressed in CHO cells at 200 nM incubated for 40 mins by spectrophotometric method. The class given is cell-based.
Data set [22] addresses T1, C-X-C chemokine receptor type 4. The data set is described as follows: Antagonist activity against CXCR4 in human SUP-T1 cells assessed as inhibition of SDF-1alpha-induced intracellular calcium mobilization at 10 uM by Fluo-4AM dye based fluorescence analysis. Type of data set: cell-based. The note with it: filed as antagonist.
Data set [23] in a line: Cytotoxicity against human PBMC assessed as reduction in cell viability at 0.016 to 10 uM incubated for 5 days by CellTiter-Blue assay. The note with it: 120 h, dose 0.016-10 µM, time 5 day. The class given is toxicity, cell-based. On the technique in general: Alamar Blue is a resazurin reagent that responds to reducing activity.
The subject of data set [24] is Human immunodeficiency virus 1. The data set is described as follows: Antiviral activity against HIV-1 R5 Bal-6 infected in human PBMC assessed as inhibition of viral replication by measuring reduction in p24 antigen level at 0.1 to 10 uM measured after 5 days by ELISA. Type of data set: functional, organism-based. The note with it: dose 0.1-10 µM, time 5.0 day.
Data set [25] concerns Human immunodeficiency virus 1. Description: Antiviral activity against HIV-1 X4 NL4-3 infected in human PBMC assessed as inhibition of viral replication by measuring reduction in p24 antigen level measured after 5 days by ELISA. Type of data set: functional, organism-based. The note with it: Human immunodeficiency virus 1, X4 NL4-3, PBMC, 120 h.

T1 sequence (P61073 whole entry): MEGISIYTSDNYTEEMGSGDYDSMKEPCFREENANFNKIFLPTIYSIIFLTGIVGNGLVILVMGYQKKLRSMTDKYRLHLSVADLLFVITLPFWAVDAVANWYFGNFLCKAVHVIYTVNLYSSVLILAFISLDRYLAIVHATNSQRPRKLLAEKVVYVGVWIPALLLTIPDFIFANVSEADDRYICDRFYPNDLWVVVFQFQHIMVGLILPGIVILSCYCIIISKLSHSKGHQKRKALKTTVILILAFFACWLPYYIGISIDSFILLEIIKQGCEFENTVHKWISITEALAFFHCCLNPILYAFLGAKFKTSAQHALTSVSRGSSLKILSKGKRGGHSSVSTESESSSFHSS
C-X-C chemokine receptor type 4 (Homo sapiens), P61073 [W94A], sequence (P61073 whole entry W94A): as the sequence (P61073 whole entry) above, with W94A counted along it
C-X-C chemokine receptor type 4 (Homo sapiens), P61073 [N119A], sequence (P61073 whole entry N119A): as the sequence (P61073 whole entry) above, with N119A counted along it
C-X-C chemokine receptor type 4 (Homo sapiens), P61073 [Y45A], sequence (P61073 whole entry Y45A): as the sequence (P61073 whole entry) above, with Y45A counted along it
C-X-C chemokine receptor type 4 (Homo sapiens), P61073 [T117A], sequence (P61073 whole entry T117A): as the sequence (P61073 whole entry) above, with T117A counted along it
C-X-C chemokine receptor type 4 (Homo sapiens), P61073 [W195A], sequence (P61073 whole entry W195A): as the sequence (P61073 whole entry) above, with W195A counted along it
C-X-C chemokine receptor type 4 (Homo sapiens), P61073 [D262N], sequence (P61073 whole entry D262N): as the sequence (P61073 whole entry) above, with D262N counted along it
C-X-C chemokine receptor type 4 (Homo sapiens), P61073 [E288A], sequence (P61073 whole entry E288A): as the sequence (P61073 whole entry) above, with E288A counted along it
C-X-C chemokine receptor type 4 (Homo sapiens), P61073 [W161A], sequence (P61073 whole entry W161A): as the sequence (P61073 whole entry) above, with W161A counted along it
C-X-C chemokine receptor type 4 (Homo sapiens), P61073 [H113A], sequence (P61073 whole entry H113A): as the sequence (P61073 whole entry) above, with H113A counted along it
C-X-C chemokine receptor type 4 (Homo sapiens), P61073 [D193A], sequence (P61073 whole entry D193A): as the sequence (P61073 whole entry) above, with D193A counted along it
C-X-C chemokine receptor type 4 (Homo sapiens), P61073 [E288D], sequence (P61073 whole entry E288D): as the sequence (P61073 whole entry) above, with E288D counted along it
C-X-C chemokine receptor type 4 (Homo sapiens), P61073 [F87A], sequence (P61073 whole entry F87A): as the sequence (P61073 whole entry) above, with F87A counted along it
C-X-C chemokine receptor type 4 (Homo sapiens), P61073 [D171A], sequence (P61073 whole entry D171A): as the sequence (P61073 whole entry) above, with D171A counted along it

As for `CC(C)C[C@@H](N)C(=O)NCC(=O)N[C@H](C)C(=O)N[C@H](CO)C(=O)N[C@H](Cc1c[nH]c2ccccc12)C(=O)N[C@H](Cc1cnc[nH]1)C(=O)N[C@H](CCCNC(=N)N)C(=O)N1CCC[C@@H]1C(=O)N[C@H](CC(=O)O)C(=O)N[C@H](CCCCN)C(=O)N[C@H](CCCCN)C(=O)N[C@H](CCCNC(=N)N)C(=O)N(CCCCCC(=O)O)[C@H](CCCCN)C(=O)N[C@H](CCCNC(=N)N)C(=O)N[C@H](CCCCN)C(=O)N[C@H](CCC(N)=O)C(=O)N[C@H](CCCNC(=N)N)C(=O)NCC(=O)N1CCC[C@@H]1C(=O)NCC(=O)N[C@H](CCCNC(=N)N)C(=O)N[C@H](C)C(=O)N[C@H](Cc1ccccc1)C(N)=O`, the inhibition entry in data set [1], in data set [7], in [11], in data set [13], in data set [14] and in [16] was “inactive” in each case. For the same molecule, the inhibition entry in data set [17], in data set [18], in data set [19] and in data set [21] was “inactive” each time. The IC50 (as a rule, the concentration that gives 50% inhibition) in data set [2] turned out to be 43.4 nM. Further, the inhibition entry in data set [3], in [6], in data set [8] and in data set [20] was “Active” throughout. In addition, the inhibition (commonly the change of the read-out against control, counted positive when it falls) in [4] was 100%; in data set [5], “Dose-Dependent Effect”; in [9], 100%; in [10], “Dose-Dependent Effect”; in [22] it was 100%. The result in data set [12] and in data set [15] was Active. In addition, the Activity entry in [23] was “Non-Toxic”.

For the molecule `CC(C)C[C@@H](N)C(=O)NCC(=O)N[C@H](C)C(=O)N[C@H](CO)C(=O)N[C@H](Cc1c[nH]c2ccccc12)C(=O)N[C@H](Cc1cnc[nH]1)C(=O)N[C@H](CCCNC(=N)N)C(=O)N1CCC[C@@H]1C(=O)N[C@H](CC(=O)O)C(=O)N[C@H](CCCCN)C(=O)N[C@H](CCCCN)C(=O)N[C@H](CCCNC(=N)N)C(=O)N(CCCCCC(=O)O)[C@H](CCCCN[C@@H](CS)C(=O)N[C@@H](C(=O)N[C@H](CCCNC(=N)N)C(=O)N1CCC[C@@H]1C(=O)N[C@H](CC(N)=O)C(=O)N[C@H](CC(N)=O)C(=O)N[C@H](CC(N)=O)C(=O)N[C@@H](C(=O)N[C@H](CCCCN)C(=O)N[C@H](CCCNC(=N)N)C(N)=O)[C@@H](C)O)[C@@H](C)O)C(N)=O`, in data set [24], the outcome was inactive. The IC50 in data set [2] amounted to 26.8 nM; in [25], 10900 nM. Further, in [15], the outcome was Active. For the same molecule, in data set [23], the Activity result is on record as “Non-Toxic”.
